# Test results published in patent publication US11053204B2, “Pyrimidinyloxy benzene derivatives as herbicides” (FMC Corporation, priority 2015, dated 2021).
# Key:
# Assay type in all cases: in vivo
# [1] = test system: ducksalad (Heteranthera limosa); test: Test B flooded paddy test, plant response rating; conditions: 250 g ai/ha; Flood; scale of 0 to 100 where 0 is no effect and 100 is complete control; 13 to 15 days
# Method in brief: (§1)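 Under a constant 3 cm flood, test compounds went directly into the paddy water. Following 13 to 15 days of greenhouse growth, treated species and controls were compared by eye.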
# rice (Oryza sativa) = test: Test B flooded paddy test, plant response rating; conditions: 250 g ai/ha; Flood; scale of 0 to 100 where 0 is no effect and 100 is complete control; 13 to 15 days
# Method in brief: as §1
# [2] = test system: sedge, umbrella (small-flower umbrella sedge, Cyperus difformis); test: Test B flooded paddy test, plant response rating; conditions: 250 g ai/ha; Flood; scale of 0 to 100 where 0 is no effect and 100 is complete control; 13 to 15 days
# Method in brief: as §1
# [3] = test system: blackgrass (Alopecurus myosuroides); test: Test C preemergence, plant response rating; conditions: Preemergence
# Method in brief: (§2)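 Both timings shared one formulation, a non-phytotoxic solvent mixture with surfactant, and a greenhouse period of 13 to 15 d. Preemergence used seeded loam/sand or silt loam soil, postemergence used 2 to 18 cm plants; visual ratings ran from 0 (no effect) to 100 (complete control).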
# corn (Zea mays) = test: Test C preemergence, plant response rating; conditions: Preemergence
# Method in brief: as §2
# [4] = test system: crabgrass, large (large crabgrass, Digitaria sanguinalis); test: Test C preemergence, plant response rating; conditions: Preemergence
# Method in brief: as §2
# [5] = test system: foxtail, giant (giant foxtail, Setaria faberii); test: Test C preemergence, plant response rating; conditions: Preemergence
# Method in brief: as §2
# [6] = test system: lambsquarters (Chenopodium album); test: Test C preemergence, plant response rating; conditions: Preemergence
# Method in brief: as §2
# [7] = test system: morningglory (Ipomoea coccinea); test: Test C preemergence, plant response rating; conditions: Preemergence
# Method in brief: as §2
# [8] = test system: nutsedge, yellow (yellow nutsedge, Cyperus esculentus); test: Test C preemergence, plant response rating; conditions: Preemergence
# Method in brief: as §2
# [9] = test system: oilseed rape (Brassica napus); test: Test C preemergence, plant response rating; conditions: Preemergence
# Method in brief: as §2
# [10] = test system: ragweed (common ragweed, Ambrosia elatior); test: Test C preemergence, plant response rating; conditions: Preemergence
# Method in brief: as §2
# [11] = test system: ryegrass, Italian (Italian ryegrass, Lolium multiflorum); test: Test C preemergence, plant response rating; conditions: Preemergence
# Method in brief: as §2
# soybean (Glycine max) = test: Test C preemergence, plant response rating; conditions: Preemergence
# Method in brief: as §2
# [12] = test system: velvetleaf (Abutilon theophrasti); test: Test C preemergence, plant response rating; conditions: Preemergence
# Method in brief: as §2
# [13] = test system: waterhemp (common waterhemp, Amaranthus rudis); test: Test C preemergence, plant response rating; conditions: Preemergence
# Method in brief: as §2
# [14] = test system: wheat (winter wheat, Triticum aestivum); test: Test C preemergence, plant response rating; conditions: Preemergence
# Method in brief: as §2
# [15] = test system: surinam grass (Brachiaria decumbens); test: Test C preemergence, plant response rating
# [16] = test system: wild poinsettia (Euphorbia heterophylla); test: Test C preemergence, plant response rating
# [17] = test system: oat, wild (wild oat Avena fatua); test: Test C preemergence, plant response rating
structure (smiles),measurement,setting,value
CCCC(=O)c1c(Br)cccc1Oc1ncc(Cl)cn1 [Compound 75],"Plant response rating, Ducksalad",[1],95
same,"Plant response rating, Rice",rice (Oryza sativa),35
same,"Plant response rating, Sedge, Umbrella",[2],95
same,"Plant response rating, Blackgrass","[3]; 62 g ai/ha, scale of 0 to 100",80
same,"Plant response rating, Blackgrass","[3]; 125 g ai/ha, scale of 0 to 100",75
same,"Plant response rating, Blackgrass","[3]; 16 g ai/ha, scale 0 to 100",0
same,"Plant response rating, Blackgrass","[3]; 31 g ai/ha, scale 0 to 100",5
same,"Plant response rating, Corn","corn (Zea mays); 62 g ai/ha, scale of 0 to 100",0
same,"Plant response rating, Corn","corn (Zea mays); 125 g ai/ha, scale of 0 to 100",5
same,"Plant response rating, Corn","corn (Zea mays); 16 g ai/ha, scale 0 to 100",0
same,"Plant response rating, Corn","corn (Zea mays); 31 g ai/ha, scale 0 to 100",0
same,"Plant response rating, Crabgrass, Large","[4]; 62 g ai/ha, scale of 0 to 100",98
same,"Plant response rating, Crabgrass, Large","[4]; 125 g ai/ha, scale of 0 to 100",98
same,"Plant response rating, Crabgrass, Large","[4]; 16 g ai/ha, scale 0 to 100",65
same,"Plant response rating, Crabgrass, Large","[4]; 31 g ai/ha, scale 0 to 100",85
same,"Plant response rating, Foxtail, Giant","[5]; 62 g ai/ha, scale of 0 to 100",65
same,"Plant response rating, Foxtail, Giant","[5]; 125 g ai/ha, scale of 0 to 100",98
same,"Plant response rating, Foxtail, Giant","[5]; 16 g ai/ha, scale 0 to 100",0
same,"Plant response rating, Foxtail, Giant","[5]; 31 g ai/ha, scale 0 to 100",25
same,"Plant response rating, Lambsquarters","[6]; 125 g ai/ha, scale of 0 to 100",70
same,"Plant response rating, Lambsquarters","[6]; 16 g ai/ha, scale 0 to 100",0
same,"Plant response rating, Lambsquarters","[6]; 31 g ai/ha, scale 0 to 100",10
same,"Plant response rating, Lambsquarters","[6]; 62 g ai/ha, scale 0 to 100",35
same,"Plant response rating, Morningglory","[7]; 125 g ai/ha, scale of 0 to 100",10
same,"Plant response rating, Morningglory","[7]; 16 g ai/ha, scale 0 to 100",0
same,"Plant response rating, Morningglory","[7]; 31 g ai/ha, scale 0 to 100",0
same,"Plant response rating, Morningglory","[7]; 62 g ai/ha, scale 0 to 100",20
same,"Plant response rating, Nutsedge, Yellow","[8]; 125 g ai/ha, scale of 0 to 100",20
same,"Plant response rating, Nutsedge, Yellow","[8]; 16 g ai/ha, scale 0 to 100",0
same,"Plant response rating, Nutsedge, Yellow","[8]; 31 g ai/ha, scale 0 to 100",0
same,"Plant response rating, Nutsedge, Yellow","[8]; 62 g ai/ha, scale 0 to 100",0
same,"Plant response rating, Oilseed Rape","[9]; 125 g ai/ha, scale of 0 to 100",40
same,"Plant response rating, Oilseed Rape","[9]; 16 g ai/ha, scale 0 to 100",0
same,"Plant response rating, Oilseed Rape","[9]; 31 g ai/ha, scale 0 to 100",0
same,"Plant response rating, Oilseed Rape","[9]; 62 g ai/ha, scale 0 to 100",10
same,"Plant response rating, Ragweed","[10]; 125 g ai/ha, scale of 0 to 100",5
same,"Plant response rating, Ragweed","[10]; 16 g ai/ha, scale 0 to 100",0
same,"Plant response rating, Ragweed","[10]; 31 g ai/ha, scale 0 to 100",0
same,"Plant response rating, Ragweed","[10]; 62 g ai/ha, scale 0 to 100",0
same,"Plant response rating, Ryegrass, Italian","[11]; 125 g ai/ha, scale of 0 to 100",15
same,"Plant response rating, Ryegrass, Italian","[11]; 16 g ai/ha, scale 0 to 100",0
same,"Plant response rating, Ryegrass, Italian","[11]; 31 g ai/ha, scale 0 to 100",5
same,"Plant response rating, Ryegrass, Italian","[11]; 62 g ai/ha, scale 0 to 100",5
same,"Plant response rating, Soybean","soybean (Glycine max); 125 g ai/ha, scale of 0 to 100",50
same,"Plant response rating, Soybean","soybean (Glycine max); 16 g ai/ha, scale 0 to 100",0
same,"Plant response rating, Soybean","soybean (Glycine max); 31 g ai/ha, scale 0 to 100",0
same,"Plant response rating, Soybean","soybean (Glycine max); 62 g ai/ha, scale 0 to 100",10
same,"Plant response rating, Velvetleaf","[12]; 125 g ai/ha, scale of 0 to 100",25
same,"Plant response rating, Velvetleaf","[12]; 16 g ai/ha, scale 0 to 100",0
same,"Plant response rating, Velvetleaf","[12]; 31 g ai/ha, scale 0 to 100",5
same,"Plant response rating, Velvetleaf","[12]; 62 g ai/ha, scale 0 to 100",35
same,"Plant response rating, Waterhemp","[13]; 125 g ai/ha, scale of 0 to 100",98
same,"Plant response rating, Waterhemp","[13]; 16 g ai/ha, scale 0 to 100",75
same,"Plant response rating, Waterhemp","[13]; 31 g ai/ha, scale 0 to 100",95
same,"Plant response rating, Waterhemp","[13]; 62 g ai/ha, scale 0 to 100",98
same,"Plant response rating, Wheat","[14]; 125 g ai/ha, scale of 0 to 100",10
same,"Plant response rating, Wheat","[14]; 16 g ai/ha, scale 0 to 100",0
same,"Plant response rating, Wheat","[14]; 31 g ai/ha, scale 0 to 100",0
same,"Plant response rating, Wheat","[14]; 62 g ai/ha, scale 0 to 100",10
same,"Plant response rating, Surinam Grass","[15]; 16 g ai/ha, scale 0 to 100",0
same,"Plant response rating, Surinam Grass","[15]; 31 g ai/ha, scale 0 to 100",30
same,"Plant response rating, Surinam Grass","[15]; 62 g ai/ha, scale 0 to 100",35
same,"Plant response rating, Surinam Grass","[15]; 125 g ai/ha, scale of 0 to 100",80
same,"Plant response rating, Poinsettia, Wild","[16]; 16 g ai/ha, scale 0 to 100",10
same,"Plant response rating, Poinsettia, Wild","[16]; 31 g ai/ha, scale 0 to 100",40
same,"Plant response rating, Poinsettia, Wild","[16]; 62 g ai/ha, scale 0 to 100",35
same,"Plant response rating, Poinsettia, Wild","[16]; 125 g ai/ha, scale of 0 to 100",35
same,"Plant response rating, Oat, Wild","[17]; 16 g ai/ha, scale 0 to 100",0
same,"Plant response rating, Oat, Wild","[17]; 31 g ai/ha, scale 0 to 100",0
same,"Plant response rating, Oat, Wild","[17]; 62 g ai/ha, scale 0 to 100",0
same,"Plant response rating, Oat, Wild","[17]; 125 g ai/ha, scale of 0 to 100",5
